Numbered stars: 1 amine (or outer) side, 2 acyl side, 3 side chain; on linkers, the order of the positions; unused ones are H or OH. Bridge positions count the residues as written; N and C are the ends. Square brackets hold non-standard residues; d marks the D form. Peptide text beside a SMILES is read from it. * marks the point of attachment. X17 = NC(=O)[C@H](CCCCNC(=O)CN1CCN(CC(=O)O)CCN(CC(=O)O)CCN(CC(=O)O)CC1)NC(=O)CCC(=O)NCCCOCCOCCOCCCN*; TBMB(SCH2CH2NH-DOTA) = O=C(O)CN1CCN(CC(=O)O)CCN(CC(=O)NCCSCc2cc(C[*:1])cc(C[*:2])c2)CCN(CC(=O)O)CC1; X13 = O=C(O)CN1CCN(CC(=O)O)CCN(CC(=O)N2CCN(Cc3cc(C[*:1])cc(C[*:2])c3)CC2)CCN(CC(=O)O)CC1; X18 = NCCNCC(CNCCN)C(=O)N[C@@H](CCC(=O)O)C(=O)NCCCOCCOCCOCCCN*; mXylylene = c1cc(C[*:1])cc(C[*:2])c1; Pentanesulfonyl = CCCCCS(=O)(=O)*; Suc = O=C(CCC(=O)[*:2])[*:1]; Nle = CCCC[C@H](N)C(=O)O; Hexanoyl = CCCCCC(=O)*; CO = O=C([*:1])[*:2]; Sar = CNCC(=O)O; NHBu = CCCCN*
Columns and labels:
[1] = target: T1, FAP-expressing human WI-38 fibroblasts (Homo sapiens, UniProt Q12884); assay: Competitive FACS binding assay
T1 construct: FAP-expressing human WI-38 fibroblasts (ECACC) were cultured in EMEM; host or cells: WI-38 human fibroblasts
T1 sequence (Q12884 whole entry): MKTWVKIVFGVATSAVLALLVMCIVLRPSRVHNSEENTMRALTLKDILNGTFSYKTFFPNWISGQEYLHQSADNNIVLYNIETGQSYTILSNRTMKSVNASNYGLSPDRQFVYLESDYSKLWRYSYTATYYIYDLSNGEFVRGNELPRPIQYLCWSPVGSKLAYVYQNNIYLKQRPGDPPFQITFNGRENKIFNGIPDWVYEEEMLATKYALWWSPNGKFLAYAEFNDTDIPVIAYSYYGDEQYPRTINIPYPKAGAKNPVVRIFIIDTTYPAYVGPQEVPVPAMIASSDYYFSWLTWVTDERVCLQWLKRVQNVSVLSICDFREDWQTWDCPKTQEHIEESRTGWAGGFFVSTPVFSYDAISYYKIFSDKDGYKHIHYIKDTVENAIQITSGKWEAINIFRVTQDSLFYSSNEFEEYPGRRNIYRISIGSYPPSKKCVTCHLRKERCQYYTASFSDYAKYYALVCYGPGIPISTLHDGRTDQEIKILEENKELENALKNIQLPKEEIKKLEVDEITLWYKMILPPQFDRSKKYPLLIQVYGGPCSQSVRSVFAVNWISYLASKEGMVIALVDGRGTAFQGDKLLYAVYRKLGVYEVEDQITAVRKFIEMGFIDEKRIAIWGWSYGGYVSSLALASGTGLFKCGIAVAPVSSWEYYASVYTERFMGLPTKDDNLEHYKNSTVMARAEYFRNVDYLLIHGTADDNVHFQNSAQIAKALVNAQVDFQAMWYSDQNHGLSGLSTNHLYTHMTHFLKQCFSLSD
Experimental: Cells were analyzed in an Attune NxT flow cytometer. […] […].
Cells were analyzed in an Attune NxT flow cytometer. […]

Human recombinant FAP [2] = target: T2, Human recombinant FAP (Homo sapiens, UniProt Q12884); assay: Surface plasmon resonance (Biacore) assay; assay type: binding
T2 sequence (Q12884 whole entry): as above

Human recombinant FAP [3] = target: T2, Human recombinant FAP; assay: FRET-based FAP protease activity assay; assay type: biochemical; design: purchased R&D systems 3715-SE
in vivo = conditions: female, athymic nude, mouse, iv
[4] = pIC50 Category (Activity), FRET-peptide substrate, 37° C.
[5] = pIC50 Category (Activity), FRET-based FAP protease activity assay, recombinant human FAP, 37° C.

Compound | IC50 [1] | Kd (Human recombinant FAP [2]) | IC50 (Human recombinant FAP [3]; [4]) | IC50 (Human recombinant FAP [3]; [5]) | also measured
CCCCNC(=O)N[C@H]1CSCc2cc(CSCCNC(=O)CN3CCN(CC(=O)O)CCN(CC(=O)O)CCN(CC(=O)O)CC3)cc(c2)CSC[C@@H](C(N)=O)NC(=O)[C@H](Cc2ccccc2)NC(=O)[C@H](CCC(N)=O)NC(=O)[C@H]([C@@H](C)O)NC(=O)[C@@H]2CCCN2C(=O)CN(C)C1=O [3BP-4621, nBu-CAyl-[Cys(tMeBn(DOTA-AET))-Nmg-Pro-Thr-Gln-Phe-Cys]-NH2] ({NHBu-CO}-C[Sar]PTQFC-NH2; linker 1-7 via TBMB(SCH2CH2NH-DOTA)) | < 10 nM | < 10 nM | < 10 nM | – | –
CCCCNC(=O)N[C@H]1CSCc2cc(CSCCNC(=O)CN3CCN(CC(=O)O)CCN(CC(=O)O)CCN(CC(=O)O)CC3)cc(c2)CSC[C@@H](C(=O)O)NC(=O)[C@H](Cc2ccccc2)NC(=O)[C@H](CCC(N)=O)NC(=O)[C@H]([C@@H](C)O)NC(=O)[C@@H]2CCCN2C(=O)CN(C)C1=O [3BP-4607, nBu-CAyl-[Cys(tMeBn(DOTA-AET))-Nmg-Pro-Thr-Gln-Phe-Cys]-OH] ({NHBu-CO}-C[Sar]PTQFC-OH; linker 1-7 via TBMB(SCH2CH2NH-DOTA)) | < 10 nM | < 10 nM | < 10 nM | – | –
CCCCC(=O)N[C@H]1CSCc2cc(CSCCNC(=O)CN3CCN(CC(=O)O)CCN(CC(=O)O)CCN(CC(=O)O)CC3)cc(c2)CSC[C@@H](C(=O)O)NC(=O)[C@H](Cc2ccccc2)NC(=O)[C@H](CCC(N)=O)NC(=O)[C@H]([C@@H](C)O)NC(=O)[C@@H]2CCCN2C(=O)[C@@H]2CCCN2C1=O [3BP-3910, Pent-[Cys(tMeBn(DOTA-AET))-Pro-Pro-Thr-Gln-Phe-Cys]-OH] | < 10 nM | < 10 nM | < 10 nM | – | pKD Category (Human recombinant FAP [2]; Biacore assay): A (Category A stands for pKD values >8.0)
CCCCCS(=O)(=O)N[C@H]1CSCc2cc(cc(CN3CCN(C(=O)CN4CCN(CC(=O)O)CCN(CC(=O)O)CCN(CC(=O)O)CC4)CC3)c2)CSC[C@@H](C(=O)N[C@@H](CC(=O)O)C(N)=O)NC(=O)[C@H](Cc2ccccc2)NC(=O)[C@H](CCC(N)=O)NC(=O)[C@H]([C@@H](C)O)NC(=O)[C@@H]2CCCN2C(=O)[C@@H]2CCCN2C1=O [3BP-3692, Pentyl-SO2-[Cys(tMeBn(DOTA-PP))-Pro-Pro-Thr-Gln-Phe-Cys]-Asp-NH2] (Pentanesulfonyl-CPPTQFCD-NH2; linker 1-7 via X13) | < 10 nM | < 10 nM | – | < 10 nM | –
CCCCNC(=O)N[C@H]1CSCc2cc(CSCCNC(=O)CN3CCN(CC(=O)O)CCN(CC(=O)O)CC3)cc(c2)CSCC(C(=O)O)NC(=O)[C@H](Cc2ccccc2)NC(=O)[C@H](CCC(N)=O)NC(=O)[C@H]([C@@H](C)O)NC(=O)[C@@H]2CCCN2C(=O)[C@@H]2CCCN2C1=O (stereo partly drawn) [3BP-5210, nBu-CAyl-[Cys(tMeBn(NOTA-AET))-Pro-Pro-Thr-Gln-Phe-Cys]-OH] | < 10 nM | < 10 nM | – | – | tissue uptake at 0.25 h (in vivo; blood pool surrogate (BPS)): 2.72 %ID/g; tissue uptake at 1 h (in vivo; blood pool surrogate (BPS)): 0.68 %ID/g; tissue uptake at 3 h (in vivo; blood pool surrogate (BPS)): 0.14 %ID/g; tissue uptake at 0.25 h (in vivo; kidneys): 37.3 %ID/g; tissue uptake at 1 h (in vivo; kidneys): 5.61 %ID/g; tissue uptake at 3 h (in vivo; kidneys): 0.42 %ID/g; tissue uptake at 0.25 h (in vivo; tumor): 7.48 %ID/g; tissue uptake at 1 h (in vivo; tumor): 8.9 %ID/g; tissue uptake at 3 h (in vivo; tumor): 9.53 %ID/g; IC50 (Human recombinant FAP [3]; pIC50 Category (activity), Recombinant human FAP): < 10 nM
CCCCCC(=O)N[C@H]1CSCc2cc(CSCCNC(=O)COCCOCCNC(=O)CCC(C(=O)O)N3CCN(CC(=O)O)CCN(CC(=O)O)CC3)cc(c2)CSC[C@@H](C(=O)O)NC(=O)[C@H](Cc2ccccc2)NC(=O)[C@H](CCC(N)=O)NC(=O)[C@H]([C@@H](C)O)NC(=O)[C@@H]2CCCN2C(=O)[C@@H]2CCCN2C1=O (stereo partly drawn) [3BP-4251, Hex-[Cys-(tMeBn(NODAGA-O2Oc-AET))-Pro-Pro-Thr-Gln-Phe-Cys]-OH] | < 10 nM | < 10 nM | < 10 nM | – | –
CCCCCC(=O)N[C@H]1CSCc2cc(CSCCNC(=O)CN3CCN(CC(=O)O)CCN(CC(=O)O)CCN(CC(=O)O)CC3)cc(c2)CSC[C@@H](C(N)=O)NC(=O)[C@H](Cc2ccccc2)NC(=O)[C@H](CCC(=O)O)NC(=O)[C@H]([C@@H](C)O)NC(=O)[C@@H]2CCCN2C(=O)[C@@H]2CCCN2C1=O [3BP-3653, Hex-[Cys(tMeBn(DOTA-AET))-Pro-Pro-Thr-Glu-Phe-Cys]-NH2] (Hexanoyl-CPPTEFC-NH2; linker 1-7 via TBMB(SCH2CH2NH-DOTA)) | < 10 nM | < 10 nM | – | < 10 nM | –
CCCCCC(=O)N[C@H]1CSCc2cc(CSCCNC(=O)CN3CCN(CC(=O)O)CCN(CC(=O)O)CCN(CC(=O)O)CC3)cc(c2)CSC[C@@H](C(=O)NCCCC(=O)O)NC(=O)[C@H](Cc2ccccc2)NC(=O)[C@H](CCC(N)=O)NC(=O)[C@H]([C@@H](C)O)NC(=O)[C@@H]2CCCN2C(=O)[C@@H]2CCCN2C1=O [3BP-3657, Hex-[Cys(tMeBn(DOTA-AET))-Pro-Pro-Thr-Gln-Phe-Cys]-Gab-OH] | < 10 nM | < 10 nM | – | < 10 nM | –
CCCCCC(=O)N[C@H]1CSCc2cc(CSCCNC(=O)CN3CCN(CC(=O)O)CCN(CC(=O)O)CCN(CC(=O)O)CC3)cc(c2)CSC[C@@H](C(=O)N[C@H](CC(=O)O)Cc2ccccc2)NC(=O)[C@H](Cc2ccccc2)NC(=O)[C@H](CCC(N)=O)NC(=O)[C@H]([C@@H](C)O)NC(=O)[C@@H]2CCCN2C(=O)[C@@H]2CCCN2C1=O [3BP-3660, Hex-[Cys(tMeBn(DOTA-AET))-Pro-Pro-Thr-Gin-Phe-Cys]-Bhf-OH] | < 10 nM | < 10 nM | – | < 10 nM | –
CCCC[C@H](NC(=O)CCC(=O)NCCCOCCOCCOCCCNC(=O)[C@H](CCC(=O)O)NC(=O)C(CNCCN)CNCCN)C(=O)N[C@H]1CSCc2cccc(c2)CSC[C@@H](C(=O)O)NC(=O)[C@H](Cc2ccccc2)NC(=O)[C@H](CCC(=O)O)NC(=O)[C@H]([C@@H](C)O)NC(=O)[C@@H]2CCCN2C(=O)[C@@H]2CCCN2C1=O [3BP-4222, N4Ac-Glu-Ttds-Nle-[Cys-(3MeBn)-Pro-Pro-Thr-Glu-Phe-Cys]-OH] ({X18-Suc}-[Nle]CPPTEFC-OH; linker 2-8 via mXylylene) | 10 to 79.4 nM | < 10 nM | 10 to 79.4 nM | – | –
CCCCCC(=O)N[C@H]1CSCc2cccc(c2)CSC[C@@H](C(=O)N[C@@H](CC(=O)O)C(=O)NCCCOCCOCCOCCCNC(=O)CCC(=O)N[C@@H](CCCCNC(=O)CN2CCN(CC(=O)O)CCN(CC(=O)O)CCN(CC(=O)O)CC2)C(N)=O)NC(=O)[C@H](Cc2ccccc2)NC(=O)[C@H](CCC(=O)O)NC(=O)[C@H]([C@@H](C)O)NC(=O)[C@@H]2CCCN2C(=O)[C@@H]2CCCN2C1=O [3BP-3396, Hex-[Cys(3MeBn)-Pro-Pro-Thr-Glu-Phe-Cys]-Asp-Ttds-Lys(DOTA)-NH2] (Hexanoyl-CPPTEFCD-X17; linker 1-7 via mXylylene) | < 10 nM | < 10 nM | – | < 10 nM | –
CCCCCC(=O)N[C@H]1CSCc2cc(CSCCNC(=O)CN3CCN(CC(=O)O)CCN(CC(=O)O)CCN(CC(=O)O)CC3)cc(c2)CSC[C@@H](C(N)=O)NC(=O)[C@H](Cc2ccccc2)NC(=O)[C@H](CCC(N)=O)NC(=O)[C@H]([C@@H](C)O)NC(=O)[C@@H]2CCCN2C(=O)[C@@H]2CCCN2C1=O [3BP-3652, Hex-[Cys(tMeBn(DOTA-AET))-Pro-Pro-Thr-Gln-Phe-Cys]-NH2] | < 10 nM | < 10 nM | – | < 10 nM | –
CCCCNC(=O)N[C@H]1CSCc2cc(cc(CN3CCN(C(=O)CN4CCN(CC(=O)O)CCN(CC(=O)O)CCN(CC(=O)O)CC4)CC3)c2)CSC[C@@H](C(N)=O)NC(=O)[C@H](Cc2ccccc2)NC(=O)[C@H](CCC(N)=O)NC(=O)[C@H]([C@@H](C)O)NC(=O)[C@@H]2CCCN2C(=O)[C@@H]2CCCN2C1=O [3BP-4565, nBu-CAyl-[Cys(tMeBn(DOTA-PP))-Pro-Pro-Thr-Gln-Phe-Cys]-NH2] | < 10 nM | < 10 nM | < 10 nM | – | –
CCCCCC(=O)N[C@H]1CSCc2cc(CSCCNC(=O)CN3CCN(CC(=O)O)CCN(CC(=O)O)CCN(CC(=O)O)CC3)cc(c2)CSC[C@@H](C(=O)O)NC(=O)[C@H](Cc2ccccc2C(F)(F)F)NC(=O)[C@H](CCC(N)=O)NC(=O)[C@H]([C@@H](C)O)NC(=O)[C@@H]2CCCN2C(=O)[C@@H]2CCCN2C1=O [3BP-3680, Hex-[Cys(tMeBn(DOTA-AET))-Pro-Pro-Thr-Gln-Otf-Cys]-OH] | < 10 nM | < 10 nM | – | < 10 nM | –
CCCCCC(=O)N[C@H]1CSCc2cc(CSCCNC(=O)CN3CCN(CC(=O)O)CCN(CC(=O)O)CCN(CC(=O)O)CC3)cc(c2)CSC[C@@H](C(=O)O)NC(=O)[C@H](Cc2ccccc2)NC(=O)[C@H](CCC(N)=O)NC(=O)[C@H]([C@@H](C)O)NC(=O)[C@@H]2CCCN2C(=O)CN(C)C1=O [3BP-3678, Hex-[Cys(tMeBn(DOTA-AET))-Nmg-Pro-Thr-Gln-Phe-Cys]-OH] (Hexanoyl-C[Sar]PTQFC-OH; linker 1-7 via TBMB(SCH2CH2NH-DOTA)) | < 10 nM | < 10 nM | – | < 10 nM | –

From patent US20230212549A1, “COMPOUNDS COMPRISING A […] LIGAND AND USE THEREOF” (priority 2021, published 2023)
